Data as given in article PMC9405727, “A Setmelanotide-like Effect at MC4R Is Achieved by MC4R Dimer Separation” (Biomolecules, 2022).
“Also recorded” adds a separate entry of the source.

How the values were obtained:
[1] = target: MC4R-WT (Homo sapiens, UniProt P32245); assay: NFAT luciferase reporter gene assay (PLC activation, Gq/11 signaling), MC4R-WT; conditions: MC4R-WT + PTX (50 ng/mL, 18 h before stimulation), HEK293; mean ± SEM, two to nine experiments
Method: Cells were maintained in minimal essential medium (MEM, Gibco, Waltham, MA, USA) supplemented with 5% fetal bovine serum (FBS, Gibco, Waltham, MA, USA) and NEAA incubated at 37 °C in humidified air containing 5% CO2. […] For the NFAT luciferase-based reporter gene assay, 1.5 × 10^4 cells per well were seeded in poly-L-lysine-coated (Gibco, Waltham, MA, USA) 96-well translucent plates (Falcon, Kaiserslautern, Germany) and incubated for 24 h.
For reporter gene assays, HEK293 cells were transfected 24 h after seeding with 45 ng plasmid DNA and 0.45 µL Metafectene (Biontex, Munich, Germany), according to the manufacturer’s protocol. […]
In order to determine phospholipase C (PLC) activation, luciferase-based reporter gene assays were conducted. […] Measurements were conducted by injecting 40 µL firefly luciferase substrate (Promega, Mannheim, Germany), and luminescence was determined with a plate reader (Mithras LB940). Signaling bias was analyzed using the formula described by Kenakin [27]:(4) Δlog(Emax/EC50)=log(Emax, A/EC50,A)−log(Emax, B/EC50, B) with A referring to the respective chimeric receptor and B being the reference (MC4R-WT). Emax was determined from concentration–response curves and depicts the maximal response (efficacy); EC50 describes the potency. Bias was further calculated, creating the antilog. […]

[2] = target: T1, MC4R-H158R (Homo sapiens, UniProt P32245, H158R); assay: NFAT luciferase reporter gene assay (PLC activation, Gq/11 signaling), H158R; format: cell-based
T1 construct: expressed in transfected cells; host or cells: HEK293
T1 sequence (P32245 whole entry H158R): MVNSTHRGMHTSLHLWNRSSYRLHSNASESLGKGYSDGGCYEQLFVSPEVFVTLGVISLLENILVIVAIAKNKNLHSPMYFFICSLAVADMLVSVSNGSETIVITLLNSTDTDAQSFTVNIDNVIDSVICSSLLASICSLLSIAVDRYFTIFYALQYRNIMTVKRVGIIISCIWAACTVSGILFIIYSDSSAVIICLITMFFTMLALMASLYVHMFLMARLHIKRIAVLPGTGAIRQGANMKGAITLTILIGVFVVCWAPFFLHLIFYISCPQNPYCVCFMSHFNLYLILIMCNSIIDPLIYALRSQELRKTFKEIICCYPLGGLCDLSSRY

[3] = test system: receptor-receptor interaction (WT, Chim 7, H158R, CB1R); assay: Donor saturation assay (DSA, NanoBRET), specificity of receptor-receptor interaction; format: cell-based, human; conditions: for Bmax: DSA; for specificity of homodimer interaction: donor saturation assay, HEK293
Method: The interaction between MC4R-WT, CB1R, and the chimeric receptors was determined using NanoBRET™ (Promega, Mannheim, Germany). The receptors were either C-terminally tagged with HaloTag (HT) as an energy acceptor or C-terminally fused with NanoLuc (NL) as an energy donor. Then, 20 h after transfection, cells were detached from the wells and centrifuged at 130× g for 5 min and the pellet was resuspended in Opti-MEM (Gibco) without phenol red, supplemented with 4% FBS (Gibco). […] The cells were then reseeded into white opaque 96-well plates (Corning, Costar) and incubated for 4–6 h at 37° and 5% CO2. […] The BRET Ratio was calculated by dividing acceptor emission by donor emission. In order to correct for background bleedthrough, the background ratio (no acceptor DMSO control) was subtracted, and the unit was changed into miliBRET (mBU).
Supplements S1: Donor Saturation Assays (DSA) investigating the specificity of receptor-receptor interaction of WT, Chim7 and H158R.
Figure S1: Donor Saturation Assays (DSA) investigating the specificity of receptor-receptor interaction of WT, Chim7 and H158R. HEK293 cells were transfected with increasing amounts of acceptor while the amount of donor was held constant. A receptor interaction is called specific, if a saturation level (Bmax) can be achieved. This is represented by a […]
hyperbolic curve. […] WT-MC4R […]
served as positive control, CB1R was included as negative control as it is known not to […]
receptor interaction, represented by the black hyperbolic curve. The negative controls depict flat behavior. (B) Homodimerization of Chim 7 is depicted next to WT-MC4R homodimer formation. Interaction of Chim7 NL with CB1R HT served as negative control.
(C) Homodimerization of H158R is depicted next to positive and negative control. […] Data […]
represent three independent experiments each performed in triplicates. Values represent

[4] = test system: receptor homodimer (MC4R-WT, CB1R, Chim 1-7, H158R); assay: NanoBRET receptor homodimerization (BRET ratio, ΔBRET); conditions: for Relative Dimerization Compared to WT: NanoBRET data from Figure 2 (ΔBRET = chimera minus MC4R-WT), HEK293, no agonist, three independent experiments in triplicate; for homodimerization compared to MC4R-WT: NanoBRET, HEK293, n = 3 in triplicate; for nanoBRET rations, mean: difference to WT+WT, mean of the replicates
Method: Cells were maintained in minimal essential medium (MEM, Gibco, Waltham, MA, USA) supplemented with 5% fetal bovine serum (FBS, Gibco, Waltham, MA, USA) and NEAA incubated at 37 °C in humidified air containing 5% CO2. For the BRET assays, 4 × 10^5 HEK293 cells per well were seeded in 6-well plates for transfection.
For BRET assays, HEK293 cells were transfected 4–6 h after seeding. Transfection was performed using 8 µL FuGene HD (Promega, Mannheim, Germany) and 1.4 µg DNA in Opti-MEM (Gibco, Waltham, MA, USA). […] In addition, 200 ng Carrier DNA (pGEM3Z) was added.
For graphical depiction the delta BRET was calculated (3) ΔBRET=BRETRatiochimeric receptor−BRETRatioWT−MC4R

[5] = target: MC4R/CB1R chimeric receptor Chim 5 (substitution of ICL2) (UniProt P32245); assay: FRET or BRET; NanoBRET in living HEK293 cells co-transfected with a NanoLuc fusion (donor; written as binder) and a HaloTag fusion (acceptor, ligand 618; written as target), NL/HT DNA ratio 1:5; BRET ratio in mBU after subtraction of the no-acceptor control; delta BRET = chimera minus MC4R-WT homodimer
[6] = test system: HEK293 cells; assay: GloSensor cAMP accumulation, isoproterenol internal control in transfected cells; format: cell-based, human
Method: Gs signaling was measured using cAMP assay GloSensor™, enabling real-time measurements of cAMP accumulation. HEK293 cells were transfected with either MC4R-WT or chimeric receptors. […] Non-PTX-treated cells received 10 µL MEM without supplements (Gibco Minimum Essential Media, Waltham, MA, USA) per well at the same time point. Bioluminescence was quantified using a Berthold Microplate Reader (Mithras LB940, Berthold Technologies GmbH and Co., Bad Wildbad, Germany). […] Cells stimulated with 1 µM isoproterenol served as an internal control. GloSensor™ results were expressed as relative luminescence units (RLU). The total cAMP formation was assessed in the time–response curve by calculating the area under the curve (AUC).

[7] = test system: MC4R/CB1R chimeric receptors; conditions: COS-7 cells; cited from earlier work
Method: Results were based on cAMP accumulation assays in COS-7 cells. […] Experiments were performed using GloSensor^TM assay enabling dynamic live cell measurement of cAMP increase. In order to compare the results of this study with results previously achieved in COS-7 cells, we used the same ...

MC4R-WT, sequence (P32245 whole entry): as the sequence (P32245 whole entry H158R) above, with R158H counted along it

## CC(=O)N[C@@H](CCCNC(=N)N)C(=O)N[C@H]1CSSC[C@@H](C(N)=O)NC(=O)[C@H](Cc2c[nH]c3ccccc23)NC(=O)[C@H](CCCNC(=N)N)NC(=O)[C@@H](Cc2ccccc2)NC(=O)[C@H](Cc2c[nH]cn2)NC(=O)[C@@H](C)NC1=O [Setmelanotide]
[1]
  Emax at 1 µM: 70.26 ± 9.13 Fold over MC4R-WT Stimulated 1 µM
[2]; HEK293, H158R, 6 h at 37 °C, mean ± SEM, n = 4
  Emax at 1 µM: 135.93 ± 17.16 Fold over MC4R-WT Stimulated 1 µM
[2]; bias Setmelanotide calculation
  Emax: 135.93%

## H158R: MC4R gain-of-function mutation located in ICL2 [Chim H158R]
[3]; HEK293, run 20211107
  Bmax: 109.9
[3]; HEK293, run 20211130
  Bmax: 119.8
[3]; HEK293, run 20211202
  Bmax: 137.4
[3]
  specificity of homodimer interaction: shows specific homodimer formation; also recorded: specific interaction
[4]
  Relative Dimerization Compared to WT: −28.94
  homodimerization compared to MC4R-WT: significantly impaired dimerization capacities
  nanoBRET rations, mean: -28.94

## MC4R-WT+MC4R-WT
[4]
  nanoBRET rations, mean: 0.000667

## MC4R/CB1R chimeric receptor Chim 5 (substitution of ICL2) (from UniProt P32245 1-332)
[5]
  Relative Dimerization Compared to WT (delta BRET): -41.8

## CC(C)NCC(O)c1ccc(O)c(O)c1 (centres unmarked) [Isop, isoproterenol]
[6]; cells transfected with Chim5, 1 µM isoproterenol, Assay 1
  cAMP AUC: 1461897
[6]; cells transfected with Chim5, 1 µM isoproterenol, Assay 2
  cAMP AUC: 430167
[6]; cells transfected with Chim5, 1 µM isoproterenol, Assay 3
  cAMP AUC: 324823
[6]; cells transfected with Chim5, 1 µM isoproterenol, Assay 4
  cAMP AUC: 256187
[6]; cells transfected with Chim6, 1 µM isoproterenol, Assay 1
  cAMP AUC: 1327867
[6]; cells transfected with Chim6, 1 µM isoproterenol, Assay 2
  cAMP AUC: 379487
[6]; cells transfected with Chim6, 1 µM isoproterenol, Assay 3
  cAMP AUC: 230900
[6]; cells transfected with Chim6, 1 µM isoproterenol, Assay 4
  cAMP AUC: 310727
[6]; cells transfected with Chim7, 1 µM isoproterenol, Assay 1
  cAMP AUC: 786920
[6]; cells transfected with Chim7, 1 µM isoproterenol, Assay 2
  cAMP AUC: 473207
[6]; cells transfected with Chim7, 1 µM isoproterenol, Assay 3
  cAMP AUC: 236040
[6]; cells transfected with Chim7, 1 µM isoproterenol, Assay 4
  cAMP AUC: 192750
[6]; cells transfected with WT, 1 µM isoproterenol, Assay 1
  cAMP AUC: 803127
[6]; cells transfected with WT, 1 µM isoproterenol, Assay 2
  cAMP AUC: 589360
[6]; cells transfected with WT, 1 µM isoproterenol, Assay 3
  cAMP AUC: 380950
[6]; cells transfected with WT, 1 µM isoproterenol, Assay 4
  cAMP AUC: 376050

## MC4R-WT: wild-type melanocortin 4 receptor
[3]; HEK293, run 20210820
  Bmax: 129.2
[3]; HEK293, run 20210901
  Bmax: 118.3
[3]; HEK293, run 20210903
  Bmax: 124.8
[3]; HEK293, run 20210929
  Bmax: 127.1
[3]; HEK293, run 20211101
  Bmax: 143.5
[3]; HEK293, run 20211107
  Bmax: 109
[3]; HEK293, run 20211130
  Bmax: 120.4
[3]; HEK293, run 20211202
  Bmax: 130.7
[3]; HEK293, run 20211217
  Bmax: 122.3
[3]
  specificity of homodimer interaction: specific interaction
[4]
  Relative Dimerization Compared to WT: 0

## 4-Norleucine, 7-D-phenylalanine-alpha-melanocyte-stimulating hormone [NDP-alpha-MSH]
[7]
  stimulated cAMP levels of chimeric receptors compared to MC4R-WT: higher

B1: CB1R: cannabinoid receptor type 1, negative control (protein)
chain: MKSILDGLADTTFRTITTDLLYVGSNDIQYEDIKGDMASKLGYFPQKFPLTSFRGSPFQEKMTAGDNPQLVPADQVNITEFYNKSLSSFKENEENIQCGENFMDIECFMVLNPSQQLAIAVLSLTLGTFTVLENLLVLCVILHSRSLRCRPSYHFIGSLAVADLLGSVIFVYSFIDFHVFHRKDSRNVFLFKLGGVTASFTASVGSLFLTAIDRYISIHRPLAYKRIVTRPKAVVAFCLMWTIAIVIAVLPLLGWNCEKLQSVCSDIFPHIDETYLMFWIGVTSVLLLFIVYAYMYILWKAHSHAVRMIQRGTQKSIIIHTSEDGKVQVTRPDQARMDIRLAKTLVLILVVLIICWGPLLAIMVYDVFGKMNKLIKTVFAFCSMLCLLNSTVNPIIYALRSKDLRHAFRSMFPSCEGTAQPLDNSMGDSDCLHKHANNAASVHRAAESCIKSTVKIAKVTMSVSTDTSAEAL
modifications: left off: NanoLuc, C-terminal, kept | HaloTag, C-terminal, kept
[4]
  homodimerization compared to MC4R-WT: decreased
